Strand notation (5' to 3'): a small letter for the sugar, then the base; units joined by * are phosphorothioate-linked, units joined directly phosphodiester-linked; [ ] holds rarer units or linkages, { } end groups; capitals alone tell only the bases. k = constrained ethyl (cEt); [5mC] = 5-methylcytosine; d = 2'-deoxy (DNA)
Test system: Yap1 mRNA
Assay: Dose-dependent inhibition of human Yap1 in A-431 cells (Example 7, 10,000 cells per well, RTS36584)
Type: cell-based
Conditions: free uptake
Experimental: Modified oligonucleotides described in the studies above were tested at various doses in A-431 cells. Cultured A-431 cells at a density of 10,000 cells per well were treated using free uptake with modified oligonucleotides diluted to concentrations described in the tables below. After approximately 48 hours, Yap1 mRNA levels were measured as previously described using the Human Yap1 primer-probe set RTS36584. Yap1 mRNA levels were normalized to total RNA content, as measured by RIBOGREEN®. Results are presented in the tables below as percent control of the amount of Yap1 mRNA relative to untreated control cells (% UTC). IC50s were calculated using a linear regression on a log/linear plot of the data in excel.

[1] = Table 60, 15.6 nM, A-431 cells 10,000 cells per well, 48 hours
[2] = Table 60, 62.5 nM, A-431 cells 10,000 cells per well, 48 hours
[3] = Table 60, 4000.00 nM, A-431 cells 10,000 cells per well, 48 hours
[4] = Table 60, A-431 cells 10,000 cells per well
[5] = Table 59, 15.6 nM, A-431 cells 10,000 cells per well, 48 hours
[6] = Table 59, 62.5 nM, A-431 cells 10,000 cells per well, 48 hours
[7] = Table 59, 4000.00 nM, A-431 cells 10,000 cells per well, 48 hours
[8] = Table 59, A-431 cells 10,000 cells per well
[9] = Table 58, 15.6 nM, A-431 cells 10,000 cells per well, 48 hours
[10] = Table 58, 62.5 nM, A-431 cells 10,000 cells per well, 48 hours
[11] = Table 58, 4000.00 nM, A-431 cells 10,000 cells per well, 48 hours
[12] = Table 58, A-431 cells 10,000 cells per well
[13] = 15.6 nM, A-431 cells, 10,000 cells per well, approximately 48 hours
[14] = 62.5 nM, A-431 cells, 10,000 cells per well, approximately 48 hours
[15] = 4000.00 nM, A-431 cells, 10,000 cells per well, approximately 48 hours
[16] = A-431 cells, approximately 48 hours, linear regression on log/linear plot

## 958579 (kA*kT*k[5mC]*dT*dT*dA*dA*dT*d[5mC]*dT*dG*dT*dG*kG*k[5mC]*kT; antisense) [compound 958579]
Table 61, 15.6 nM, A-431 cells 10,000 cells per well, 48 hours
  Yap1 mRNA, % UTC: 85 % UTC
Table 61, 62.5 nM, A-431 cells 10,000 cells per well, 48 hours
  Yap1 mRNA, % UTC: 52 % UTC
Table 61, 4000.00 nM, A-431 cells 10,000 cells per well, 48 hours
  Yap1 mRNA, % UTC: 12 % UTC
Table 61, A-431 cells 10,000 cells per well
  IC50: 0.1 µM

## 958543 (kA*k[5mC]*k[5mC]*dT*dT*dA*dT*dA*dG*dT*dA*dT*dT*k[5mC]*kT*kA; antisense) [compound 958543]
[1]
  Yap1 mRNA, % UTC: 84 % UTC
[2]
  Yap1 mRNA, % UTC: 63 % UTC
[3]
  Yap1 mRNA, % UTC: 18 % UTC
[4]
  IC50: 0.1 µM

## 958597 (k[5mC]*k[5mC]*k[5mC]*dA*dA*dT*dA*d[5mC]*dA*dA*d[5mC]*d[5mC]*dA*kA*kG*kA; antisense) [compound 958597]
[5]
  Yap1 mRNA, % UTC: 104 % UTC
[6]
  Yap1 mRNA, % UTC: 46 % UTC
[7]
  Yap1 mRNA, % UTC: 20 % UTC
[8]
  IC50: 0.2 µM

## 958532 (kG*kA*kA*dG*dT*dA*dG*dG*dA*dG*d[5mC]*dA*dA*kG*kT*k[5mC]; antisense) [compound 958532]
[9]
  Yap1 mRNA, % UTC: 88 % UTC
[10]
  Yap1 mRNA, % UTC: 44 % UTC
[11]
  Yap1 mRNA, % UTC: 7 % UTC
[12]
  IC50: 0.1 µM

## 958500 (kT*k[5mC]*kT*dA*dT*dA*dT*dT*dA*dG*dA*dG*dT*kA*kT*kG) [compound 958500]
[13]
  Yap1 mRNA, % UTC: 91 % UTC
[14]
  Yap1 mRNA, % UTC: 63 % UTC
[15]
  Yap1 mRNA, % UTC: 16 % UTC
[16]
  IC50: 0.1 µM

## 958544 (kG*k[5mC]*kT*dA*dA*dA*dT*dT*d[5mC]*dA*dA*d[5mC]*dT*kA*k[5mC]*k[5mC]; antisense) [compound 958544]
[13]
  Yap1 mRNA, % UTC: 65 % UTC
[14]
  Yap1 mRNA, % UTC: 77 % UTC
[15]
  Yap1 mRNA, % UTC: 17 % UTC
[16]
  IC50: 0.1 µM

## 958813 (kT*kT*kA*d[5mC]*dA*dG*dA*dG*dA*dG*dA*dT*dT*k[5mC]*kA*kT; antisense) [compound 958813]
[1]
  Yap1 mRNA, % UTC: 81 % UTC
[2]
  Yap1 mRNA, % UTC: 79 % UTC
[3]
  Yap1 mRNA, % UTC: 29 % UTC
[4]
  IC50: 0.2 µM

## 958752 (kG*kA*kA*dT*dT*dT*dT*dT*dA*dG*dT*d[5mC]*d[5mC]*kA*kG*kT; antisense) [compound 958752]
[9]
  Yap1 mRNA, % UTC: 102 % UTC
[10]
  Yap1 mRNA, % UTC: 66 % UTC
[11]
  Yap1 mRNA, % UTC: 9 % UTC
[12]
  IC50: 0.1 µM

## 958485 (kA*kG*kA*dG*dG*dT*d[5mC]*dA*dG*d[5mC]*dA*dA*dT*kA*k[5mC]*kA; antisense) [compound 958485]
[13]
  Yap1 mRNA, % UTC: 68 % UTC
[14]
  Yap1 mRNA, % UTC: 38 % UTC
[15]
  Yap1 mRNA, % UTC: 8 % UTC
[16]
  IC50: 0.04 µM

## 958562 (k[5mC]*kA*kT*dT*dG*dA*dA*dA*dG*dA*d[5mC]*d[5mC]*d[5mC]*kT*kT*kA; antisense) [compound 958562]
[5]
  Yap1 mRNA, % UTC: 105 % UTC
[6]
  Yap1 mRNA, % UTC: 95 % UTC
[7]
  Yap1 mRNA, % UTC: 28 % UTC
[8]
  IC50: 0.4 µM

## 958763 (k[5mC]*kA*k[5mC]*dA*dA*dT*dA*d[5mC]*dA*dA*dG*dA*dT*kG*k[5mC]*kA; antisense) [compound 958763]
[5]
  Yap1 mRNA, % UTC: 98 % UTC
[6]
  Yap1 mRNA, % UTC: 60 % UTC
[7]
  Yap1 mRNA, % UTC: 8 % UTC
[8]
  IC50: 0.1 µM

## 958625 (kT*kG*k[5mC]*dT*dG*dG*dG*dA*dT*dT*dG*dA*dT*kA*kT*kT; antisense) [compound 958625]
[13]
  Yap1 mRNA, % UTC: 86 % UTC
[14]
  Yap1 mRNA, % UTC: 59 % UTC
[15]
  Yap1 mRNA, % UTC: 17 % UTC
[16]
  IC50: 0.1 µM

## 958525 (kA*kT*kG*dA*dA*dG*dG*dT*dA*dA*dA*d[5mC]*d[5mC]*kA*k[5mC]*kT; antisense) [compound 958525]
[13]
  Yap1 mRNA, % UTC: 94 % UTC
[14]
  Yap1 mRNA, % UTC: 57 % UTC
[15]
  Yap1 mRNA, % UTC: 8 % UTC
[16]
  IC50: 0.1 µM

## 958518 (k[5mC]*k[5mC]*kA*d[5mC]*dA*dG*dT*dA*dA*dT*dA*dG*d[5mC]*kT*k[5mC]*kT; antisense) [compound 958518]
[5]
  Yap1 mRNA, % UTC: 95 % UTC
[6]
  Yap1 mRNA, % UTC: 55 % UTC
[7]
  Yap1 mRNA, % UTC: 4 % UTC
[8]
  IC50: 0.1 µM
